Measurements taken from patent US20240173419A1, “CDK2 DEGRADERS AND USES THEREOF” (Kymera Therapeutics, Inc., priority 2022, published 2024).

Target: T1, CDK2 (Homo sapiens, UniProt P24941)
T1 construct: endogenous in cells; host or cells: MKN1 cells
Assay: CDK2 degradation in MKN1 cells (AlphaLISA)
Type: cell-based
Conditions: 14 h incubation; for DC50: read-out: CDK2 degradation 14 h: Mean external-Abs DC50
Method in brief: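 DC50 from four-parameter logistic fit of AlphaLISA CDK2 signal, corrected for no-cell wells. Lysates came from MKN1 cells, 2e4 per well, exposed 14 h at 37° C to compound at 0.001 nM-10 μM (1:5 series, 11 doses) in 0.1% DMSO.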

| CDK2 degradation 14 h: Average Dmax % | DC50 | Compound |
| --- | --- | --- |
| B (B (>50% -75%)) | < 100 nM | Cc1cc(S(=O)(=O)NC(C)COC2CCC(CN3CC(c4cccc5c4n(C)c(=O)n5C4CCC(=O)NC4=O)C3)CC2)ccc1Nc1ncc(C(F)(F)F)c(N2CCCC(C)(O)C2)n1 (stereo not drawn) [I-850] |
| A (A (>75% o)) | < 100 nM | Cc1cc(S(=O)(=O)NC(C)COC2CCC(CN3CCN(c4cccc5c4n(C)c(=O)n5C4CCC(=O)NC4=O)CC3)CC2)ccc1Nc1ncc(C(F)(F)F)c(N2CCCC(C)(O)C2)n1 (stereo not drawn) [I-851] |
| B (B (>50% -75%)) | 100 to 500 nM | Cc1cc(S(=O)(=O)C2CC3(CCN(CCOC4CN(c5ccc6c(c5F)n(C)c(=O)n6C5CCC(=O)NC5=O)C4)CC3)C2)ccc1Nc1ncc(C(F)(F)F)c(N2CCCC(C)(O)C2)n1 (stereo not drawn) [I-853] |
| B (B (>50% -75%)) | 100 to 500 nM | Cc1cc(S(=O)(=O)C2CC3(CCN(CCOC4CN(c5cccc6c5n(C)c(=O)n6C5CCC(=O)NC5=O)C4)CC3)C2)ccc1Nc1ncc(C(F)(F)F)c(N2CCCC(C)(O)C2)n1 (stereo not drawn) [I-854] |
| B (B (>50% -75%)) | < 100 nM | Cn1c(=O)n(C2CCC(=O)NC2=O)c2ccc(N3CCC(CN4CCC5(CC4)CC(S(=O)(=O)c4ccc(Nc6ncc(C(F)(F)F)c(N7CCCC(C)(O)C7)n6)c(Cl)c4)C5)CC3)c(F)c21 (stereo not drawn) [I-855] |
| D (D (<25%)) | > 1000 nM | COCc1cnc(Nc2ccc(S(=O)(=O)C3CC4(CCN(CC5CCN(c6ccc7c(c6F)n(C)c(=O)n7C6CCC(=O)NC6=O)CC5)CC4)C3)cc2C)nc1N1CCCC(C)(O)C1 (stereo not drawn) [I-856] |
| A (A (>75% o)) | < 100 nM | Cc1cc(S(=O)(=O)NC(C)COC2CCC(CN3CCN(c4ccc5c(c4F)n(C)c(=O)n5C4CCC(=O)NC4=O)CC3)CC2)ccc1Nc1ncc(C(F)(F)F)c(N2CCC(C(C)(C)O)C2)n1 (stereo not drawn) [I-857] |
| A (A (>75% o)) | < 100 nM | Cc1cc(S(=O)(=O)NC(C)COC2CCC(CN3CCN(c4ccc5c(c4F)n(C)c(=O)n5C4CCC(=O)NC4=O)CC3)CC2)ccc1Nc1ncc(C(F)(F)F)c(N2CCC(C(C)(C)O)C2)n1 (stereo not drawn) [I-858] |
| B (B (>50% -75%)) | 100 to 500 nM | Cc1cc(S(=O)(=O)NC2CCN(CC3(C)CN(c4ccc(C5CCC(=O)NC5=O)c(Cl)c4)C3)CC2)ccc1Nc1ncc(C(F)(F)F)c(N2CCC[C@](C)(O)C2)n1 (stereo partly drawn) [I-910] |
| A (A (>75% o)) | < 100 nM | Cc1cc(S(=O)(=O)NC2CC3(C2)CN(CC2CN(c4ccc(C5CCC(=O)NC5=O)c(Cl)c4)C2)C3)ccc1Nc1ncc(C(F)(F)F)c(N2CCCC(C)(O)C2)n1 (stereo not drawn) [I-928] |
| C (C (>25% -50%)) | > 1000 nM | Cc1cc(S(=O)(=O)NC2CCC(CN3CCN(c4cccc(C5CCC(=O)NC5=O)c4)CC3)CC2)ccc1Nc1ncc(C(F)(F)F)c(N2CCCC(C)(O)C2)n1 (stereo not drawn) [I-929] |
| A (A (>75% o)) | < 100 nM | Cc1cc(S(=O)(=O)NC2CCC(N3CCN(c4ccc(C5CCC(=O)NC5=O)c(Cl)c4)CC3)CC2)ccc1Nc1ncc(C(F)(F)F)c(N2CCCC(C)(O)C2)n1 (stereo not drawn) [I-930] |
| A (A (>75% o)) | < 100 nM | Cc1cc(S(=O)(=O)NC2CCC(CN3CCN(c4c(F)cc(C5CCC(=O)NC5=O)cc4F)CC3)CC2)ccc1Nc1ncc(C(F)(F)F)c(N2CCCC(C)(O)C2)n1 (stereo not drawn) [I-935] |
| C (C (>25% -50%)) | > 1000 nM | Cc1cc(S(=O)(=O)NC2CCC(CN3CCN(c4cccc(C5CCC(=O)NC5=O)c4)CC3)CC2)ccc1Nc1ncc2c(n1)N(C1CCCC(O)C1)C(=O)C21CC1 (stereo not drawn) [I-938] |
| B (B (>50% -75%)) | < 100 nM | Cc1cc(S(=O)(=O)NC2CCC(CCN3CCN(c4ccc(C5CCC(=O)NC5=O)cc4F)CC3)CC2)ccc1Nc1ncc2c(n1)N(C1CCCC(O)C1)C(=O)C21CC1 (stereo not drawn) [I-939] |
| A (A (>75% o)) | < 100 nM | Cc1cc(S(=O)(=O)NC2CCC(CN3CCN(c4cc(C)c(C5CCC(=O)NC5=O)cc4F)CC3)CC2)ccc1Nc1ncc(C(F)(F)F)c(N2CCCC(C)(O)C2)n1 (stereo not drawn) [I-940] |
| A (A (>75% o)) | < 100 nM | Cc1cc(S(=O)(=O)NC2CCC(CN3CCN(c4c(F)cc(C5CCC(=O)NC5=O)cc4Cl)CC3)CC2)ccc1Nc1ncc(C(F)(F)F)c(N2CCCC(C)(O)C2)n1 (stereo not drawn) [I-941] |
| A (A (>75% o)) | < 100 nM | Cc1cc(S(=O)(=O)NC2CCC(OC3CCN(c4ccc(C5CCC(=O)NC5=O)cc4F)CC3)CC2)ccc1Nc1ncc(C(F)(F)F)c(N2CCCC(C)(O)C2)n1 (stereo not drawn) [I-942] |
| A (A (>75% o)) | < 100 nM | CC1(O)CCCN(c2nc(Nc3ccc(S(=O)(=O)NC4CCC(CN5CCN(c6ccc(C7CCC(=O)NC7=O)c(F)c6)CC5)CC4)cc3)ncc2C(F)(F)F)C1 (stereo not drawn) [I-943] |
| A (A (>75% o)) | < 100 nM | CC1(O)CCCN(c2nc(Nc3ccc(S(=O)(=O)NC4CCC(CN5CCN(c6ccc(C7CCC(=O)NC7=O)c(F)c6)CC5)CC4)cc3C(F)F)ncc2C(F)(F)F)C1 (stereo not drawn) [I-944] |

| CDK2 degradation 14 h: Average Dmax % | DC50 | Compound |
| --- | --- | --- |
| A (A (>75% o)) | < 100 nM | Cc1cc(S(=O)(=O)NC2CCC(CN3CCN(c4ccc5c(c4)n(C4CC4)c(=O)n5C4CCC(=O)NC4=O)CC3)CC2)ccc1Nc1ncc2c(n1)N(C1CCCC(O)C1)C(=O)C21CC1 (stereo not drawn) [I-947] |
| A (A (>75% o)) | < 100 nM | Cc1cc(S(=O)(=O)NC2CCN(CC3CCN(c4c(F)ccc5c4n(C)c(=O)n5C4CCC(=O)NC4=O)CC3)CC2F)ccc1Nc1ncc2c(n1)N(C1CCCC(O)C1)C(=O)C21CC1 (stereo not drawn) [I-949] |
| A (A (>75% o)) | < 100 nM | O=C1CCC(c2ccc(N3CCC(CN4CCC(NS(=O)(=O)c5ccc(Nc6ncc7c(n6)N(C6CCCC(O)C6)C(=O)C76CC6)c(F)c5)C(F)C4)CC3)cc2F)C(=O)N1 (stereo not drawn) [I-950] |
| A (A (>75% o)) | < 100 nM | Cc1cc(S(=O)(=O)NC2CCC(CN3CCN(c4ccc(C5CCC(=O)NC5=O)cc4F)CC3C)CC2)ccc1Nc1ncc2c(n1)N(C1CCCC(O)C1)C(=O)C21CC1 (stereo not drawn) [I-966] |
| A (A (>75% o)) | < 100 nM | Cn1nc(N2CCC(=O)NC2=O)c2ccc(C3CCN(Cc4cccc(S(=O)(=O)N5CCC(Nc6ncc7ccc(=O)n(C8CCCC8)c7n6)CC5)c4)CC3)cc21 [I-968] |
| A (A (>75% o)) | < 100 nM | Cc1cc(S(=O)(=O)N2CCC(CN(C)C3CCN(c4cccc5c4n(C)c(=O)n5C4CCC(=O)NC4=O)CC3)CC2)ccc1Nc1nc(OC2CCCCC2)c2nc[nH]c2n1 (stereo not drawn) [I-970] |
| B (B (>50% -75%)) | < 100 nM | Cc1cc(S(=O)(=O)NCCOCCOCCCc2ccc3c(c2)n(C)c(=O)n3C2CCC(=O)NC2=O)ccc1Nc1ncc2c(n1)N(C1CCCC1)C(=O)C21CC1 (stereo not drawn) [I-972] |
| A (A (>75% o)) | < 100 nM | Cc1cc(S(=O)(=O)NCCOCCOCCOCCOCCCc2ccc3c(c2)n(C)c(=O)n3C2CCC(=O)NC2=O)ccc1Nc1ncc2ccc(=O)n(C3CCCC3)c2n1 (stereo not drawn) [I-973] |
| A (A (>75% o)) | < 100 nM | Cc1cc(S(=O)(=O)NCCOCCOCCOCCOCCCc2ccc3c(c2)n(C)c(=O)n3C2CCC(=O)NC2=O)ccc1Nc1ncc2c(n1)N(C1CCCC1)C(=O)C21CC1 (stereo not drawn) [I-974] |
| B (B (>50% -75%)) | < 100 nM | Cc1cc(S(=O)(=O)NCCCCCCc2cccc3c2n(C)c(=O)n3C2CCC(=O)NC2=O)ccc1Nc1ncc2cc(C(F)F)c(=O)n(C3CCCC3(C)O)c2n1 (stereo not drawn) [I-976] |
| A (A (>75% o)) | < 100 nM | CC1CC(NS(=O)(=O)c2ccc(Nc3ncc(C(F)(F)F)c(N4CCCC(C)(O)C4)n3)c(F)c2)CCN1CC1CCN(c2ccc(C3CCC(=O)NC3=O)c(F)c2)CC1 (stereo not drawn) [I-1037] |
| A (A (>75% o)) | < 100 nM | Cn1c(=O)n(C2CCC(=O)NC2=O)c2ccc(N3CCC(CN4CCC(NS(=O)(=O)c5ccc(Nc6ncc(C(F)(F)F)c(N7CCCC(C)(O)C7)n6)c(F)c5)C(F)C4)CC3)cc21 (stereo not drawn) [I-1039] |
| D (D (<25%)) | > 1000 nM | CC1(O)CCCN(c2nc(Nc3ccc(S(=O)(=O)N4CCN(CC5CCC(Oc6cccc(C7CCC(=O)NC7=O)c6)CC5)CC4)cc3C(F)F)ncc2C(F)(F)F)C1 (stereo not drawn) [I-1043] |
| D (D (<25%)) | > 1000 nM | CC1(O)CCCN(c2nc(Nc3ccc(S(=O)(=O)N4CCN(CC5CCC(Oc6ccc(C7CCC(=O)NC7=O)cc6)CC5)CC4)cc3C(F)F)ncc2C(F)(F)F)C1 (stereo not drawn) [I-1044] |
| B (B (>50% -75%)) | 100 to 500 nM | CN(CC1CCC(NS(=O)(=O)c2ccc(Nc3ncc(C(F)(F)F)c(N4CCCC(C)(O)C4)n3)c(C(F)F)c2)CC1)C1CN(c2ccc(C3CCC(=O)NC3=O)c(F)c2)C1 (stereo not drawn) [I-1045] |
| A (A (>75% o)) | < 100 nM | CC1CN(CC2CCN(c3ccc(C4CCC(=O)NC4=O)c(F)c3)CC2)CCC1NS(=O)(=O)c1ccc(Nc2ncc(C(F)(F)F)c(N3CCCC(C)(O)C3)n2)c(F)c1 (stereo not drawn) [I-1046] |
| A (A (>75% o)) | < 100 nM | Cc1cc(S(=O)(=O)NC2CCC(CN3CCN(c4ccc(C5CCC(=O)NC5=O)c(Cl)c4)CC3)CC2)ncc1Nc1ncc(C(F)(F)F)c(N2CCCC(C)(O)C2)n1 (stereo not drawn) [I-1047] |
| A (A (>75% o)) | < 100 nM | Cc1nc(S(=O)(=O)NC2CCC(CN3CCN(c4ccc(C5CCC(=O)NC5=O)c(Cl)c4)CC3)CC2)ccc1Nc1ncc(C(F)(F)F)c(N2CCCC(C)(O)C2)n1 (stereo not drawn) [I-1048] |
| A (A (>75% o)) | < 100 nM | Cc1nc(S(=O)(=O)NC2CCC(CN3CCN(c4ccc(C5CCC(=O)NC5=O)c(F)c4)CC3)CC2)ccc1Nc1ncc(C(F)(F)F)c(N2CCCC(C)(O)C2)n1 (stereo not drawn) [I-1049] |
